Columns and labels:
[1] = Inhibition of matrix metalloprotease activated Bacillus anthracis Protective antigen-mediated cytotoxicity in HT1080 cells compound co-treated for 5 hrs with antigen measured after 48 hrs by MTT assay in presence of FP59
[2] = Inhibition of Bacillus anthracis Protective antigen-mediated cytotoxicity in RAW264.7 cells compound co-treated for 5 hrs with antigen by MTT assay in presence of lethal factor
[3] = Inhibition of Bacillus anthracis Protective antigen-mediated cytotoxicity in RAW264.7 cells compound co-treated for 5 hrs with antigen measured after 48 hrs by MTT assay in presence of FP59
[4] = Inhibition of Bacillus anthracis Protective antigen-mediated cytotoxicity in HT1080 cells compound co-treated for 5 hrs with antigen measured after 48 hrs by MTT assay in presence of FP59

Compound	EC50 [1]	EC50 [2]	EC50 [3]	EC50 [4]
NC(=O)c1ccccc1NC(=O)c1ccc(C(=O)Nc2ccccc2C(N)=O)cc1	1000 nM	3000 nM	1000 nM	1000 nM
Oc1ccccc1/C=N/c1ccc(Cc2ccc(/N=C/c3ccccc3O)c(O)c2)cc1O	1000 nM	3000 nM	1000 nM	1000 nM
